# Measurements: patent publication US5716993A, “Anthranilic acid derivatives” (Eisai Co., Ltd., priority 1993, dated 1998)
# Target: T1, cGMP-PDE prepared from porcine aorta (Sus scrofa, UniProt A0A287B475)
# T1 construct: The enzyme activity of CGMP-PDE prepared from porcine aorta was determined; from tissue; host or cells: porcine aorta, 100,000×g supernatant, DEAE-Toyopearl 650S fractions
# Assay: Enzyme inhibitory activity using cGMP-PDE prepared from porcine aorta
# Type: biochemical
# Conditions: CaM-independent cGMP-PDE fractions from porcine aorta; 1 μM cGMP substrate, 1 mM EGTA, DMSO 4% or below
# Procedure: Enzyme Inhibitory activity using cGMP-PDE prepared from porcine aorta
# The enzyme activity of CGMP-PDE prepared from porcine aorta was determined according to the method of Thompson et al. This determination was conducted in the presence of 1 mM EGTA by the use of 1 μM cGMP as the substrate. Each compound according to the present invention was dissolved in DMSO and added to the reaction system to determine the inhibitory activity thereof. The final concentration of DMSO in the reaction system was adjusted to 4% or below.
# The cGMP-PDE was prepared as follows:
# Porcine aorta was cut into fine pieces, followed by the addition of 10 times by volume as much buffer A (20 mM Tris/HCl, 2 mM Mg acetate, 1 mM dithiothreitol, 5 mM EDTA, 1400TIU/1 aprotinin, 10 mg/1 leupeptin, 1 mM benzamidine, 0.2 mM PMSF, pH7.5). The obtained mixture was homogenized and centrifuged at 100,000×g for one hour. The obtained supernatant was placed on a column of DEAE-Toyopearl 650S (a product of Tosoh, Tokyo, Japan), followed by the washing of the column with buffer B (50 mM Tris/HCl, 0.1 mM EGTA, 2 mM Mg acetate, 1 mM Dithiothreitol, 0.2 mM PMSF, pH7.5). The resulting column was subjected to gradient elution with 0.05 to 0.4M sodium chloride to obtain CaM-independent cGMP-PDE fractions.
row,IC50 [nM],Structure (SMILES)
1,3.2,"O=C(NCc1ccc2c(c1)OCO2)c1cc(Cl)ccc1NC(=O)[C@H]1CC[C@H](C(=O)O)CC1 [Example 39, 2-(trans-4-Carboxycyclohexanecarbonyl)amino-5-chloro-N-(3,4-methylenedioxybenzyl)benzamide]"
2,0.7,"O=C(NCc1ccc2c(c1)OCO2)c1cc(Br)ccc1NC(=O)[C@H]1CC[C@H](C(=O)O)CC1 [Example 45, 5-Bromo-2-(trans-4-carboxycyclohexanecarbonyl)amino-N-(3,4-methylenedioxybenzyl)benzamide]"
3,5.3,O=C(NCc1ccc2c(c1)OCO2)c1cc(Cl)ccc1NC[C@H]1CC[C@H](C(=O)O)CC1 [Example 47]
4,5.3,"COc1ccc(CNC(=O)c2cc(Cl)ccc2NC(=O)[C@H]2CC[C@H](C(=O)O)CC2)cc1Cl [Example 112, 2-[(trans-4-Carboxycyclohexanecarbonyl)amino]-5-chloro-N-(3-chloro-4-methoxybenzyl)benzamide]"
5,0.4,"COc1ccc(CNC(=O)c2cc(Br)ccc2NC(=O)[C@H]2CC[C@H](C(=O)O)CC2)cc1Cl [Example 113, 5-Bromo-2-[(trans-4-carboxycyclohexanecarbonyl)amino]-N-(3-chloro-4-methoxybenzyl)benzamide]"
6,24.8,"COc1ccc(CNC(=O)c2cc(Br)c(OC)cc2NC(=O)[C@H]2CC[C@H](C(=O)O)CC2)cc1Cl [Example 115, 5-Bromo-2-[(trans-4-carboxycyclohexanecarbonyl)amino]-N-(8-chloro-4-methoxybenzyl)-4-methoxybenzamide]"
7,2.9,COc1ccc(CNC(=O)c2cc(C#N)c(OC)cc2NC(=O)[C@H]2CC[C@H](C(=O)O)CC2)cc1Cl [Example 116]
8,7.7,"COc1cc(CNC(=O)c2cc(Cl)ccc2NC(=O)[C@H]2CC[C@H](C(=O)O)CC2)ccc1Cl [Example 121, 2-[(trans-4-Carboxycyclohexanecarbonyl)amino]-5-chloro-N-(4-chloro-3-methoxybenzyl)benzamide]"
9,19.2,"O=C(NCc1ccc2c(c1)OCO2)c1cc(OC(F)(F)F)ccc1NC(=O)[C@H]1CC[C@H](C(=O)O)CC1 [Example 125, 2-[(trans-4-Carboxycyclohexanecarbonyl)amino]-N-(3,4-methylenedioxybenzyl)-5-trifluoromethoxybenzamide]"
10,2.9,"O=C(NCc1ccc2c(c1)OCO2)c1cc(-n2cccn2)ccc1NC(=O)[C@H]1CC[C@H](C(=O)O)CC1 [Example 126, 2-[(trans-4-Carboxycyclohexanecarbonyl)amino]-N-(3,4-methylenedioxybenzyl)-5-(1-pyrazolyl)benzamide]"
11,36.8,"COc1cc(NC(=O)[C@H]2CC[C@H](C(=O)O)CC2)c(C(=O)NCc2ccc3c(c2)OCO3)cc1Br [Example 129, 5-Bromo-2-[(trans-4-carboxycyclohexanecarbonyl)amino]-4-methoxy-N-(3,4-methylenedioxybenzyl)benzamide]"
12,7.2,"COc1ccc(CNC(=O)c2cc(Br)c(N)cc2NC(=O)[C@H]2CC[C@H](C(=O)O)CC2)cc1Cl [Example 141, 4-Amino-5-bromo-2-[(trans-4-carboxycyclohexanecarbonyl)amino]-N-(3-chloro-4-methoxybenzyl)benzamide]"

# Second part, the compound before the results:
row,Structure (SMILES),IC50 [nM]
1,"O=C(Nc1ccc(Cl)cc1C(=O)NCc1ccc2c(c1)OCO2)c1ccncc1 [Example 9, 5-Chloro-N-(3,4-methylenedioxybenzyl)-2-(isonicotinoylamino)benzamide]",28.8
2,"O=C(NCc1ccc2c(c1)OCO2)c1cc(Cl)ccc1NC(=O)C1CCCCC1 [Example 19, 5-Chloro-2-[(cyclohexanecarbonyl)amino]-N-(3,4-methylenedioxybenzyl)benzamide]",16.6
3,"O=C(NCc1ccc2c(c1)OCO2)c1cc(Cl)ccc1NCc1ccncc1 [Example 33, 5-Chloro-N-(3,4-methylenedioxybenzyl)-2-(4-picolyl)aminobenzamide]",20.5
4,"O=C(NCc1ccc2c(c1)OCO2)c1cc(Cl)ccc1NC(=O)N1CCC(C(=O)O)CC1 [Example 38, 1-[[4-Chloro-2-[(3,4-methylenedioxybenzyl)carbamoyl]phenyl]carbamoyl]piperidine-4-carboxylic acid]",6.7
5,"O=C(O)c1ccc(C(=O)Nc2ccc(Cl)cc2C(=O)NCc2ccc3c(c2)OCO3)cc1 [Example 41, 2-(4-Carboxybenzoyl)amino-5-chloro-N-(3,4-methylenedioxybenzyl)benzamide]",1.4
6,COc1ccc(CNC(=O)c2cc(Cl)ccc2NC(=O)N2CCC(C(=O)O)CC2)cc1Cl [Example 43],0.9
7,"O=C(O)/C=C/C(=O)Nc1ccc(Cl)cc1C(=O)NCc1ccc2c(c1)OCO2 [Example 44, 2-(3-Carboxyacryoyl)amino-5-chloro-N-(3,4-methylenedioxybenzyl)benzamide]",79.8
8,"COc1ccc(CNC(=O)c2cc(C#N)ccc2NC(=O)N2CCC(O)CC2)cc1Cl [Example 74, 1-[[2-[(3-Chloro-4-methoxybenzyl)carbamoyl]-4-cyanophenyl]carbamoyl]-4-hydroxypiperidine]",2.4
9,"COc1ccc(CNC(=O)c2cc(C#N)ccc2NC(=O)c2ccncc2)cc1Cl [Example 80, N-(3-Chloro-4-methoxybenzyl)-5-cyano-2-(isonicotinoylamino)benzamide]",11.9
10,COc1ccc(CNC(=O)c2cc(Br)ccc2NC(=O)c2ccncc2)cc1Cl [Example 81],14.5
11,"COc1ccc(CNC(=O)c2cc(C#N)c(OC)cc2NC(=O)c2ccncc2)cc1Cl [Example 83, N-(3-Chloro-4-methoxybenzyl)-5-cyano-2-(isonicotinoylamino)-4-methoxybenzamide]",12.6
12,"O=C(Nc1ccc(Br)cc1C(=O)NCc1ccc2c(c1)OCO2)c1ccncc1 [Example 85, 5-Bromo-2-(isonicotinoylamino)-N-(3,4-methylenedioxybenzyl)benzamide]",21.7
13,"COc1ccc(CNC(=O)c2cc(C#N)ccc2NC(=O)[C@H]2CC[C@H](O)CC2)cc1Cl [Example 109, N-(3-Chloro-4-methoxybenzyl)-5-cyano-2-[(trans-4-hydroxycyclohexanecarbonyl)amino]benzamide]",4.4
14,"COc1ccc(CNC(=O)c2cc(C#N)ccc2NC(=O)[C@H]2CC[C@H](C(=O)O)CC2)cc1Cl [Example 110, 2-[(trans-4-Carboxycyclohexanecarbonyl)amino]-N-(3-chloro-4-methoxybenzyl)-5-cyanobenzamide]",0.7
15,"COc1ccc(CNC(=O)c2cc(Br)ccc2NC(=O)N2CCC(C(=O)O)CC2)cc1Cl [Example 111, 1-[[4-Bromo-2-[(3-chloro-4-methoxybenzyl)carbamoyl]phenyl]carbamoyl]piperidine-4-carboxylic acid]",2
16,"COc1ccc(CNC(=O)c2cc([N+](=O)[O-])ccc2NC(=O)[C@H]2CC[C@H](C(=O)O)CC2)cc1Cl [Example 114, 2-[(trans-4-Carboxycyclohexanecarbonyl)amino]-N-(3-chloro-4-methoxybenzyl)-5-nitrobenzamide]",1.7
17,"COc1ccc(CNC(=O)c2cc(S(=O)(=O)N(C)C)ccc2NC(=O)[C@H]2CC[C@H](C(=O)O)CC2)cc1Cl [Example 117, 2-[(trans-4-Carboxycyclohexanecarbonyl)amino]-N-(3-chloro-4-methoxybenzyl)-5-dimethylsulfamoylbenzamide]",11.5
18,"COc1ccc(CNC(=O)c2cc(Cl)ccc2NC(=O)[C@H]2CC[C@H](C(=O)O)CC2)cc1C#N [Example 120, 2-[(trans-4-Carboxycyclohexanecarbonyl)amino]-5-chloro-N-(3-cyano-4-methoxybenzyl)benzamide]",21.5
19,O=C(NCc1ccc2c(c1)OCO2)c1cc(Br)ccc1NC(=O)N1CCC(C(=O)O)CC1 [Example 122],5
20,"O=C1c2c(NC(=O)[C@H]3CC[C@H](C(=O)O)CC3)ccc(Br)c2CN1Cc1ccc2c(c1)OCO2 [Example 123, 4-Bromo-7-[(trans-4-carboxycyclohexanecarbonyl)amino]-N-(3,4-methylenedioxybenzyl)isoindoline-1-one]",6.1
21,"COc1ccc(CNC(=O)c2cc(C#N)ccc2NC(=O)[C@@H]2CCC(=O)O2)cc1Cl [Example 136, N-(3-Chloro-4-methoxybenzyl)-5-cyano-2-[((S)-5-oxo-2-tetrahydrofurancarbonyl)amino]benzamide]",18.1
